Measurements published in patent publication US4512992A, “Treatment with dialkoxy pyridopyrimidine compounds” (Burroughs Wellcome Co., priority 1981, dated 1985).

Experiments:
[1] = target: Histamine N-Methyltransferase (HMT) (Homo sapiens, UniProt P50135); assay: Inhibition of histamine N-methyltransferase (HMT); format: biochemical
Protocol: Inhibition of Histamine N-Methyltransferase
The effect of the test compounds used in Example 2 against HMT was determined. An inhibition of less than 20% was considered acceptable.

[2] = target: T1, mammalian dihydrofolate reductase (DHFR) (Rattus norvegicus, UniProt Q920D2); assay: Inhibition of mammalian dihydrofolate reductase (DHFR) partially purified from rat liver; format: biochemical
T1 construct: DHFR partially purified from rat liver; from tissue; host or cells: rat liver
T1 sequence (Q920D2 1-187): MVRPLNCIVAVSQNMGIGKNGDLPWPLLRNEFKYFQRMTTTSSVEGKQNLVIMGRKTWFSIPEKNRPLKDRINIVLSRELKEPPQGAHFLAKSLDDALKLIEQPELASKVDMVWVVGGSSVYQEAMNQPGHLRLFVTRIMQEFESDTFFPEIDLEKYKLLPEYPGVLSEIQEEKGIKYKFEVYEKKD
Protocol: Inhibition of Mammalian Dihydrofolate Reductase (DHFR) by […]-5-methyl-6-benzylpyrido(2,3-d)pyrimidines
The inhibitory effect of the test compounds against DHFR partially purified from rat liver was determined. An IC50 of 5×10^-8 M or less is considered significant potency, an IC50 of 1×10^-8 M or less being particularly significant potency.

Chain of Histamine N-Methyltransferase (HMT) (P50135 whole entry, species assumed): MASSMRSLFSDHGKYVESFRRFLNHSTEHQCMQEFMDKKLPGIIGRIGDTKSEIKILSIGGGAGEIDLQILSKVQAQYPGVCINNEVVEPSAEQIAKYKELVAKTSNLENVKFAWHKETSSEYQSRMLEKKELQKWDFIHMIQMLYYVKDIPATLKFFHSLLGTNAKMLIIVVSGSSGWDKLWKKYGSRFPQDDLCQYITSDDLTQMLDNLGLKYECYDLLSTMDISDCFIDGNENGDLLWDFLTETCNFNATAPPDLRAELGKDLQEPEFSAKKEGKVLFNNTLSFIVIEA

inhibitor of mammalian DHFR (in words) [2]: very potent inhibitor of mammalian DHFR
SMILES: COc1ccc(Cc2cnc3nc(N)nc(N)c3c2C)cc1OC [2,4-Diamino-6-(3,4-dimethoxybenzyl)-5-methylpyrido[2,3-d]pyrimidine]
inhibitory activity against HMT (in words) [1]: acceptably low inhibitory activity against HMT
